Test results: article PMC5891061, “Electrophysiological mechanisms of vandetanib-induced cardiotoxicity: Comparison of action potentials in rabbit Purkinje fibers and pluripotent stem cell-derived cardiomyocytes” (PLoS ONE, 2018)

What was measured:
S624A hERG = S624A hERG (Homo sapiens, UniProt Q12809, S624A); settings: 3 μM
Description: (§1) The hERG mutations were constructed by site-directed mutagenesis of WT hERG cDNA in pcDNA3.1 vector using the QuickChange Site-Directed Mutagenesis Kit (Stratagene), and the integrity of the construct was verified by DNA sequencing. The WT hERG (generously donated by Professor Ho, Seoul National University, Korea) and mutant channels were transiently expressed in an HEK-293 cell line using Lipofectamine 2000 (Gibco), according to the manufacturer’s recommendations.

T623A hERG = T623A hERG (Homo sapiens, UniProt Q12809, T623A); settings: 3 μM
Description: as §1

F656A hERG = F656A hERG (Homo sapiens, UniProt Q12809, F656A); settings: 3 μM, -120 mV, high K+

COc1cc2c(Nc3ccc(Br)cc3F)ncnc2cc1OCC1CCN(C)CC1 [Vandetanib]
S624A hERG current (S624A hERG): 78.1 ± 31.0 | T623A hERG current (T623A hERG): 266.1 ± 117.0 | F656A hERG current (F656A hERG): -1101.9 ± 122.4
